Data on 89 molecules can be found in a melting point compilation (Tetko et al.; mined from patent text by program, amines drawn as free bases though some values may be those of a salt).

SMILES strings stand for the structures. Where only a bound is given, the exact number is not on record here.

The term melting point denotes the temperature, or range, at which the solid turns liquid. `O=C(NCCO)c1cccc(-c2ccc3ccn(-c4ccc(Cl)cc4Cl)c3n2)c1`: the melting point fell in the range of 159 to 160 °C. Consider `Cc1nc(Cl)c(-c2ccc(F)cc2)n1-c1ccc(Cl)cc1`, for which the melting point lay in the range of 124 to 126 °C. The value for `CCOC(=O)C1(C(=O)Nc2ccc(C(F)(F)F)cc2)CC1` was 80.5 to 82 °C. `CNC(=NCCSCc1ncccc1OC)NC#N` came in with a melting point of 122 to 123 °C.

For the molecule `CN1CC=C(c2cccc3[nH]ccc23)CC1`, the melting point stood at 164 °C.

`CCOC1CC2(C)C(CCC3C4CC=C(C(C)=O)C4(C)CC(=O)C32)CC1O` (centres undefined) returned a melting point of 89 to 91 °C. The value for `CC(=O)Nc1cc(Cc2ccc3c(C(=O)Nc4ccc(CN5CCN(C)CC5)c(C(F)(F)F)c4)cccc3c2)ncn1` was 202 to 204 °C. In the case of `COc1cc(Cl)c2c(c1)CCN2c1cc(NC(C)C2CCC2)nc(C)n1` (centres undefined) it was 125 to 128 °C. In the case of `CC(Oc1ccccc1Cl)c1nnc(C2C(O)NC(=O)N2C)s1` (centres undefined) it was 122 to 124 °C.

As to `CCOC(=O)c1cn(C)nc1OCc1ccc(OCc2nc(-c3ccco3)oc2C)c(OC)c1`, the melting point fell in the range of 117 to 118 °C.

As for `O=C1CC(c2ccc(Cl)cc2Cl)Oc2ccccc21` (centres undefined), the melting point fell in the range of 91 to 92 °C. In the case of `CCSc1cnn(-c2cc(-c3ccnc(Nc4cccc(Cl)c4)n3)ccn2)c(=O)c1Cl` it was 80 to 100 °C; in that of `C#Cc1cccc(Nc2c(C#N)cnc3ccc(OCCOC)c(OCCOC)c23)c1`, 150 to 153 °C. As for `COC(=O)c1ccc2oc(=O)n(Cc3cccc(-c4ncc(OCCCN(C)C)cn4)c3)c2c1`, the melting point turned out to be 125 °C.

Molecule `COC(=O)c1cc2cc(N)ccc2o1` gave a melting point of 112 to 113 °C. Molecule `CCOC(=O)C(=O)Nc1cccc(N(C)C)c1C#N` gave a melting point of 124 to 126 °C.

`COc1cc(N)c(Cl)cc1C(=O)NCC1(OC)CCN(CCCCCC(=O)c2ccccc2)CC1` had a melting point of 91 to 93 °C. The value for `CCOCc1nc2c(N)nc3cc(-c4cccnc4)ccc3c2n1CC1CCN(C(=O)OC(C)(C)C)CC1` was 197 to 198 °C. The value for `COc1ccc(F)cc1C(C)(C)CC(O)(Cc1cccc(-c2cccnc2)c1)C(F)(F)F` (centres undefined) was 148 to 150 °C; that for `CCC(CC)N(Cc1ccc(C(=O)O)cn1)S(=O)(=O)c1ccc(F)cc1` was 145 to 147 °C; that for `C=CCn1c(-c2c(Cl)cccc2Cl)nc(-c2ccncc2)c1-c1ccc(C)cc1` was 147 to 149 °C.

In the case of `CCC(C(=O)N(C)C)n1cc(C)c(-c2ccc(Cl)cc2C)n1` (centres undefined), the melting point fell in the range of 89 to 92 °C. The value for `CSc1ncnc2c(C3OC(CO)C(O)C3O)csc12` (centres undefined) was 226 to 228 °C; that for `CCc1nc(C)cn1C(=O)c1c(Cl)cccc1Cl` was 112 to 114 °C. As to `CN1CCC(c2cccc3ccc(NC(=O)c4ccccc4)cc23)C1` (centres undefined), the melting point was 137 to 145 °C. As to `COCCNC(=O)c1n[nH]cc1NC(=O)c1ccccn1`, the melting point was in the range of 166 to 167 °C.

Take `CCCCCCCc1ccc(-c2cnc(-c3ccc(OCCCCCC)c(F)c3)nc2)cc1`: the melting point came to 80.5 °C. `O=C(Nc1cccc2c(=O)cc(-c3nnn[nH]3)oc12)c1ccc2c(c1)CC(CCCc1ccccc1)O2` (centres undefined) yielded a melting point of 234 to 235 °C. `NCc1nc(-c2ncn3c2[C@@H]2CCN2C(=O)c2ccccc2-3)no1` registered a melting point of 211 to 214 °C.

`O=C1NCCCN1Cc1ccc2ccccc2c1` came in with a melting point of 151 to 155 °C. Molecule `O=C(NCCCCCCOC(=O)N1CCC(O)CC1)Oc1ccc(Oc2ccccc2)cc1` registered a melting point of 48 to 55 °C.

With `Cc1ccc(-c2cncn2-c2ccc(S(C)(=O)=O)cc2)cc1F`, the melting point came to 147 °C. The value for `Cc1ncc2n1-c1ccc(C(C)O)cc1C(c1ccccc1)=NC2` (centres undefined) was 223 to 225 °C; that for `COc1ccc(CSc2nnc(-c3ccc4occc4c3)o2)cc1C(F)(F)F` was 135 to 136 °C.

In turn, `O=C(OCc1ccccc1)c1ncn2c1[C@@H]1CCN1C(=O)c1c(Cl)cccc1-2` gave a melting point of 180 to 182 °C. In the case of `CCOc1ccc(Oc2ccc(OCc3ccccc3)cc2)c([N+](=O)[O-])c1` it was 96 to 96.5 °C. `Cc1nc(N2CCN(Cc3nc(C)n(-c4ccccc4)n3)C2=O)sc1C(=O)NCc1ccccc1`: the melting point was in the range of 139 to 141 °C. The value for `Cc1ccnc(N2CCN(CCc3c(-c4ccc(O)cc4)n4c5c(cccc35)CCC4)CC2)c1` was 220 °C; that for `OCc1ccccc1SCCN1CCN(c2ccccc2)CC1` was 72 to 74 °C. The value for `CCCCc1nc2ccccn2c(=O)c1-c1ccc(NC(=O)[C@@H]2CCCN2C(=O)OC(C)(C)C)cc1` was 179 to 187 °C; that for `CCn1c2ccc3ccccc3c2c2cccc(C=O)c21` was 148 to 149 °C. `c1ccc2c3c4c(nc2c1)CCCC4SCCN3` (centres undefined) gave a melting point of 171 to 175 °C. `COC(=O)CCc1oc2ccc(C#N)cc2c1C(=O)c1ccc(O)cc1` yielded a melting point of 156 to 158 °C. Molecule `CN(C)C(=O)Sc1ccc(C(F)(F)F)cc1C(=O)c1ccc(C#N)cc1` yielded a melting point of 159 °C. Regarding `N#CCCNC(=O)c1cccc(-c2ccc3ccn(Cc4ccc(Cl)cc4Cl)c3c2)c1`, the melting point was in the range of 153 to 154 °C. In the case of `CCN(CC)CCNC(=O)c1cc(Cl)c(N)cc1OCC(=O)c1ccccc1` it was 153 to 154 °C. On to `O=C(O)C=CC1=CCCC([N+](=O)[O-])C1` (centres undefined), for which the melting point was in the range of 158 to 160 °C. In the case of `CCOC(=O)Cc1cc(Br)c(C(=O)c2ccc(Cl)cc2)n1C`, the melting point is 118 to 120 °C. In the case of `O=C(c1cccc(OCCCN2C(=O)c3ccccc3C2=O)c1)N1CCCCC1` it was 120 to 122 °C; in that of `COC(=O)Cc1c(OC)ccc2c1Oc1c(ccc(OC)c1C=NO)C2(C)C`, 234 to 236 °C. On to `COc1cc(N)nc(Cl)n1`, for which the melting point is 186 °C. The value for `O=C(O)CS(=O)(=O)CCCCCCn1nc(-c2ccccc2)c(-c2ccccc2)c1-c1ccccc1` was 154 to 155 °C. In the case of `CC(C)(C)NC(=NC#N)Nc1cccnc1` it was 205 to 206 °C.

In turn, `O=C1N(CC2CCCN2)c2ccccc2C12COc1cc3c(cc12)CCO3` (centres undefined) had a melting point of 83 to 86 °C.

`CCC(=O)c1cc(-c2ccc(OC)cc2)no1` came in with a melting point of 135 to 136 °C.

For the molecule `CS(=O)(=O)Nc1ccc(C(=O)c2ccc(Cl)cc2)cc1`, the melting point is 198 to 200 °C. The value for `O=C1CCC(C(=O)c2ccc(Cl)cc2)N1` (centres undefined) was 174 °C; that for `CN(C)c1cccc2c1C(=O)N(C1(C(N)=O)CCCCC1)C2=O` was 166 to 169 °C; that for `CCCCOc1ccc(C(=O)CCCCC(=O)O)cc1` was 95 °C.

Turning to `C[C@@H]1NC(=O)OC1(c1ccccc1)c1ccccc1`, the melting point lay within 264 to 266 °C.

Molecule `Cc1nc(C(F)(F)F)ccc1C(=O)Nc1ccccc1` yielded a melting point of 161 °C. In the case of `O=C(O)c1cn(-c2cccc(OC(F)F)c2)cn1`, the melting point lay in the range of 190 to 191 °C. Molecule `O=C(CSCc1ccccc1)CS(=O)(=O)C(c1ccc(Cl)cc1)c1ccc(Cl)cc1` displayed a melting point of 108 to 110 °C. Regarding `CC(C)CCOCc1cccc(N2N=C(C(N)=O)NC2c2ccccc2F)c1` (centres undefined), the melting point was in the range of 120 to 122 °C. In the case of `Cc1c(/C=C/C(=O)O)cnn1C` it was 217 to 219 °C; in that of `CCOC(=O)c1cc(-n2c(=O)c3c(n(C)c2=O)CCC3)ccc1[N+](=O)[O-]`, 188 to 190 °C.

In turn, `COc1cc(-c2nc3ncccc3o2)cc(C(C)(C)C)c1` returned a melting point of 119 to 121 °C. Molecule `CC(C)c1ccc(S(=O)(=O)c2ccccc2)cc1S(=O)(=O)NC1CCN(C(=O)c2ccccc2)CC1` had a melting point of 225 °C. `CCOC(=O)c1c(N)c2cc(Cl)ccc2n1C(=O)C(F)(F)F`: the melting point was in the range of 249 to 251 °C. In the case of `COc1c2oc(C)cc2cc2c(C)cc(=O)oc12` it was 154 to 155 °C; in that of `CC1Oc2ccc(CN3CCC(c4ccc(C(F)(F)F)cc4)CC3)cc2NC1=O` (centres undefined), 217 to 218 °C. The value for `COC(=O)c1ccc(S(=O)C(Cn2ccnc2)c2ccccc2OC)cc1` (centres undefined) was 113 to 115 °C. The molecule `COc1cccc(NC(=O)NC2N=C(c3ccccc3)c3ccccc3N(CCN(C)C)C2=O)c1` (centres undefined) yielded a melting point of 213 to 215 °C.

As to `COc1ncc(Cl)c(C)c1C(=O)O`, the melting point lay within 127 to 129 °C. For the molecule `O=C(c1csc2ccccc12)C1CCN(CCc2ccccc2)CC1`, the melting point is 110 to 112 °C. In the case of `Cc1nc(-c2ccc(S(C)(=O)=O)cc2)c(-c2ccc(-c3cscn3)cc2)s1` it was 194 °C; in that of `COC(=O)C(C)Oc1ccc(COc2ccc(Cl)cc2Cl)cc1` (centres undefined), 64 °C. The value for `CCOc1cc(C)ccc1NC1CCN(CCCCNC(=O)c2ccc(-c3ccc(C(F)(F)F)cc3)cc2)CC1` was 162 °C. The value for `COC(=O)CCCc1cc2nc(Cl)ccc2n1S(=O)(=O)c1ccc(C(F)(F)F)cc1` was 99 °C; that for `CC(C(=O)NCc1ccc(C(C)(C)C)cc1)c1ccc(NS(C)(=O)=O)c(F)c1` (centres undefined) was 52 to 54 °C. As to `CCOC(=O)c1c(C)c(C(=O)O)c(C)n1C`, the melting point was in the range of 197 to 198 °C. For the molecule `CC1(C)OC(=O)Nc2ccc(-c3coc(C=O)c3)cc21`, the melting point lay within 262 to 263 °C. Molecule `Cn1c(COc2ccc(CC3SC(=O)NC3=O)cc2)nc2ccc(Cl)nc21` (centres undefined) returned a melting point of 222 to 223 °C. `CC(=NNC(=O)c1ccccc1)c1ccccn1` gave a melting point of 152 °C. `CCCn1ccc2c(NCCc3ccc(OC)cc3)cccc2c1=O` displayed a melting point of 109 to 110 °C. As to `CCOC(=O)c1cc(SC)c(I)cc1N`, the melting point was 59 to 60 °C. The value for `Fc1ccc(-c2cncc(CN3CC=C(c4ccccc4)CC3)c2)cc1` was 128 to 129 °C; that for `CC(C)CC1(CC(=O)NO)CCN(CCc2ccccc2)C1=O` (centres undefined) was 123 to 124 °C; that for `Cn1ncc(C(=O)O)c1C(=O)Nc1ccn2nc(Br)nc2c1` was above 250 °C.
